Source: patent publication US20260027068A1, “METHODS OF ADM[…]-KETAMINE” (Perception Neuroscience, Inc., priority 2022, published 2026)
Read-outs that look alike come from different tables or passages of the source.

Legend:
Pulse (vital signs) = test: Pulse (vital signs)
Procedure: The Investigational Medicinal Product (IMP) R(−)-ketamine hydrochloride in sterile water for intravenous injection was investigated as an […] treatment of TRD. The International Union of Pure and Applied Chemistry (IUPAC) name is of the IMP is (2R)-2-(2-chlorophenyl)-2-(methylamino)cyclohexan-1-one. Subjects received the solution at either 30 mg or 60 mg dose, or a placebo. The IMP or placebo was administered on Day 1 as a single IV infusion via an electronic infusion pump over 40 minutes. The duration of study participation for each subject was up to 29 days including a screening period, a 3-day in-clinic visit, and 2 follow-up visits. 101 subjects were enrolled in approximately 20 study centers in the EU and the US.
Tympanic or temporal temperature, heart rate, blood pressure (SBP/DBP), respiratory rate, and SpO2 were assessed. Blood pressure and pulse measurements will be assessed with a completely automated device while the subject is supine or semi-supine. Manual techniques will be used only if an automated device is not available. Blood pressure and pulse measurements should be preceded by at least 5 minutes of rest for the subject in a quiet setting without distractions (e.g., television, cell phones). An abnormal blood pressure value at screening may be repeated once after 5 minutes of relaxation to determine the subject's eligibility. Blood pressure was recorded using the same arm and position (supine or semi-supine) throughout the study, where possible. Vital signs (to be taken before blood collection for laboratory tests) consisted of 1 pulse and 3 blood pressure measurements (3 consecutive blood pressure readings will be recorded at intervals of at least 1 minute). The average of the 3 blood pressure readings was recorded in the CRF. A pulse oximeter was used to measure peripheral capillary oxygen saturation (SpO2) continuously from pre-dose until 4-hours post-dose. A pulse oximeter was clipped onto the finger or foot of the subject, and light will be sent through the finger or foot and measured on the other side.
In these tables, baseline value is defined as the last non-missing value prior to study drug administration.

rodents = conditions: cited from earlier work
CYP2C19 = CYP2C19 (Homo sapiens, UniProt P33261); test: In vitro CYP inhibition
Sequence of CYP2C19 (P33261 whole entry): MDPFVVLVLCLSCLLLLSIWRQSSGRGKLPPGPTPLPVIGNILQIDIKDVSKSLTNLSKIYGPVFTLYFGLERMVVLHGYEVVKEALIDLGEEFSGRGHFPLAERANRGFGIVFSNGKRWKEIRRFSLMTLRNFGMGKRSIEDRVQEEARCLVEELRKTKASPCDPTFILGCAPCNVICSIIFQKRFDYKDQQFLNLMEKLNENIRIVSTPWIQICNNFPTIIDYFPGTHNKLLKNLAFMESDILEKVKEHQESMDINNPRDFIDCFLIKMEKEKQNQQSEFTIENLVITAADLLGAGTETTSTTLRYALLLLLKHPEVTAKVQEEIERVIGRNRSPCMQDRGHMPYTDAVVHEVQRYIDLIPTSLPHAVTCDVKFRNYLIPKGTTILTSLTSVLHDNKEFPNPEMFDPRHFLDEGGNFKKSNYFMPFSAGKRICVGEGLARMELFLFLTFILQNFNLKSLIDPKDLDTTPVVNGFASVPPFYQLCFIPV

[1] = tested on: social defeat stress model in mice; conditions: cited from earlier work

CN[C@@]1(c2ccccc2Cl)CCCCC1=O.Cl [R(−)-ketamine, (2R)-2-(2-chlorophenyl)-2-(methylamino)cyclohexan-1-one]
Pulse: Mean (Pulse (vital signs); 30 mg, Day 1, 15 minutes): 69.4 beats/minute
Pulse: Median (Pulse (vital signs); 30 mg, Day 1, 15 minutes): 70.0 beats/minute
Pulse: Mean (Pulse (vital signs); 30 mg, Day 1, 40 minutes): 69.9 beats/minute
Pulse: Median (Pulse (vital signs); 30 mg, Day 1, 40 minutes): 70.0 beats/minute
Pulse: Mean (Pulse (vital signs); 30 mg, Day 1, 60 minutes): 67.2 beats/minute
Pulse: Median (Pulse (vital signs); 30 mg, Day 1, 60 minutes): 68.5 beats/minute
Pulse: Mean (Pulse (vital signs); 30 mg, Day 1, 2 hours): 70.7 beats/minute
Pulse: Median (Pulse (vital signs); 30 mg, Day 1, 2 hours): 70.0 beats/minute
Pulse: Mean (Pulse (vital signs); 30 mg, Day 1, 4 hours): 72.1 beats/minute
Pulse: Median (Pulse (vital signs); 30 mg, Day 1, 4 hours): 72.0 beats/minute
Pulse: Mean (Pulse (vital signs); 30 mg, Day 1, 6 hours): 70.7 beats/minute
Pulse: Median (Pulse (vital signs); 30 mg, Day 1, 6 hours): 72.0 beats/minute
Pulse: Mean (Pulse (vital signs); 30 mg, Day 2 - Discharge): 73.5 beats/minute
Pulse: Median (Pulse (vital signs); 30 mg, Day 2 - Discharge): 75.0 beats/minute
Pulse: Mean (Pulse (vital signs); 30 mg, Day 8): 74.1 beats/minute
Pulse: Median (Pulse (vital signs); 30 mg, Day 8): 74.0 beats/minute
Pulse: Mean (Pulse (vital signs); 30 mg, Day 15): 74.4 beats/minute
Pulse: Median (Pulse (vital signs); 30 mg, Day 15): 75.0 beats/minute
Pulse: Change from Baseline, Mean (Pulse (vital signs); 30 mg, to Day 1, 15 minutes): −0.4 beats/minute
Pulse: Change from Baseline, Median (Pulse (vital signs); 30 mg, to Day 1, 15 minutes): 0.0 beats/minute
Pulse: Change from Baseline, Mean (Pulse (vital signs); 30 mg, to Day 1, 40 minutes): −0.6 beats/minute
Pulse: Change from Baseline, Median (Pulse (vital signs); 30 mg, to Day 1, 40 minutes): −1.0 beats/minute
Pulse: Change from Baseline, Mean (Pulse (vital signs); 30 mg, to Day 1, 60 minutes): −2.5 beats/minute
Pulse: Change from Baseline, Median (Pulse (vital signs); 30 mg, to Day 1, 60 minutes): −3.5 beats/minute
Pulse: Change from Baseline, Mean (Pulse (vital signs); 30 mg, to Day 1, 2 hours): 0.2 beats/minute
Pulse: Change from Baseline, Median (Pulse (vital signs); 30 mg, to Day 1, 2 hours): −2.0 beats/minute
Pulse: Change from Baseline, Mean (Pulse (vital signs); 30 mg, to Day 1, 4 hours): 1.6 beats/minute
Pulse: Change from Baseline, Median (Pulse (vital signs); 30 mg, to Day 1, 4 hours): 2.0 beats/minute
Pulse: Change from Baseline, Mean (Pulse (vital signs); 30 mg, to Day 1, 6 hours): 0.2 beats/minute
Pulse: Change from Baseline, Median (Pulse (vital signs); 30 mg, to Day 1, 6 hours): 1.0 beats/minute
Pulse: Change from Baseline, Mean (Pulse (vital signs); 30 mg, to Day 2 - Discharge): 3.1 beats/minute
Pulse: Change from Baseline, Median (Pulse (vital signs); 30 mg, to Day 2 - Discharge): 2.0 beats/minute
Pulse: Change from Baseline, Mean (Pulse (vital signs); 30 mg, to Day 8): 2.1 beats/minute
Pulse: Change from Baseline, Median (Pulse (vital signs); 30 mg, to Day 8): 1.0 beats/minute
Pulse: Change from Baseline, Mean (Pulse (vital signs); 30 mg, to Day 15): 3.3 beats/minute
Pulse: Change from Baseline, Median (Pulse (vital signs); 30 mg, to Day 15): 2.0 beats/minute
Pulse: Mean (Pulse (vital signs); 60 mg, Day 1, 15 minutes): 67.3 beats/minute
Pulse: Median (Pulse (vital signs); 60 mg, Day 1, 15 minutes): 66.5 beats/minute
Pulse: Mean (Pulse (vital signs); 60 mg, Day 1, 40 minutes): 68.0 beats/minute
Pulse: Median (Pulse (vital signs); 60 mg, Day 1, 40 minutes): 68.0 beats/minute
Pulse: Mean (Pulse (vital signs); 60 mg, Day 1, 60 minutes): 64.9 beats/minute
Pulse: Median (Pulse (vital signs); 60 mg, Day 1, 60 minutes): 65.0 beats/minute
Pulse: Mean (Pulse (vital signs); 60 mg, Day 1, 2 hours): 68.2 beats/minute
Pulse: Median (Pulse (vital signs); 60 mg, Day 1, 2 hours): 70.0 beats/minute
Pulse: Mean (Pulse (vital signs); 60 mg, Day 1, 4 hours): 70.7 beats/minute
Pulse: Median (Pulse (vital signs); 60 mg, Day 1, 4 hours): 72.0 beats/minute
Pulse: Mean (Pulse (vital signs); 60 mg, Day 1, 6 hours): 72.6 beats/minute
Pulse: Median (Pulse (vital signs); 60 mg, Day 1, 6 hours): 71.0 beats/minute
Pulse: Mean (Pulse (vital signs); 60 mg, Day 2 - Discharge): 72.2 beats/minute
Pulse: Median (Pulse (vital signs); 60 mg, Day 2 - Discharge): 70.0 beats/minute
Pulse: Mean (Pulse (vital signs); 60 mg, Day 8): 73.3 beats/minute
Pulse: Median (Pulse (vital signs); 60 mg, Day 8): 70.0 beats/minute
Pulse: Mean (Pulse (vital signs); 60 mg, Day 15): 71.0 beats/minute
Pulse: Median (Pulse (vital signs); 60 mg, Day 15): 69.0 beats/minute
Pulse: Change from Baseline, Mean (Pulse (vital signs); 60 mg, to Day 1, 15 minutes): 0.0 beats/minute
Pulse: Change from Baseline, Median (Pulse (vital signs); 60 mg, to Day 1, 15 minutes): 0.5 beats/minute
Pulse: Change from Baseline, Mean (Pulse (vital signs); 60 mg, to Day 1, 40 minutes): −4.7 beats/minute
Pulse: Change from Baseline, Median (Pulse (vital signs); 60 mg, to Day 1, 40 minutes): −5.0 beats/minute
Pulse: Change from Baseline, Mean (Pulse (vital signs); 60 mg, to Day 1, 60 minutes): −2.3 beats/minute
Pulse: Change from Baseline, Median (Pulse (vital signs); 60 mg, to Day 1, 60 minutes): −1.0 beats/minute
Pulse: Change from Baseline, Mean (Pulse (vital signs); 60 mg, to Day 1, 2 hours): −4.5 beats/minute
Pulse: Change from Baseline, Median (Pulse (vital signs); 60 mg, to Day 1, 2 hours): −5.0 beats/minute
Pulse: Change from Baseline, Mean (Pulse (vital signs); 60 mg, to Day 1, 4 hours): −2.0 beats/minute
Pulse: Change from Baseline, Median (Pulse (vital signs); 60 mg, to Day 1, 4 hours): −1.0 beats/minute
Pulse: Change from Baseline, Mean (Pulse (vital signs); 60 mg, to Day 1, 6 hours): −0.3 beats/minute
Pulse: Change from Baseline, Median (Pulse (vital signs); 60 mg, to Day 1, 6 hours): 0.5 beats/minute
Pulse: Change from Baseline, Mean (Pulse (vital signs); 60 mg, to Day 2 - Discharge): −0.6 beats/minute
Pulse: Change from Baseline, Median (Pulse (vital signs); 60 mg, to Day 2 - Discharge): −1.0 beats/minute
Pulse: Change from Baseline, Mean (Pulse (vital signs); 60 mg, to Day 8): 0.6 beats/minute
Pulse: Change from Baseline, Median (Pulse (vital signs); 60 mg, to Day 8): 0.0 beats/minute
Pulse: Change from Baseline, Mean (Pulse (vital signs); 60 mg, to Day 15): −1.7 beats/minute
Pulse: Change from Baseline, Median (Pulse (vital signs); 60 mg, to Day 15): 0.0 beats/minute
Conditioned place preference (rodents; 20 mg/kg): did not cause conditioned place preference
Conditioned place preference (rodents; 40 mg/kg): did cause conditioned place preference
CYP2C19 inhibition (CYP2C19): inhibitor
Anti-depressant effects [1]: more potent and long lasting anti-depressant effects when compared to S(+)-ketamine
